Like-named read-outs stand apart in the source and are kept apart here. Marks after values point to notes of the source that are not given here.
How the values were obtained:
[1] = for AUC0-tau: geometric mean ± geometric CV %
Method: (§1) There were 6 subjects treated with each dose and twelve subjects treated with placebo (two placebo-treated-subjects included with each dose group).
The blood samples were collected in K2EDTA, centrifuged and the plasma stored at −80° C. The samples were prepared for analysis by liquid/liquid extraction as follows. A 50 μL aliquot was extracted with 25 μL of methanol:water (50:50) and mixed; following which 250 μL of ammonia acetate 100 mM:ammonia hydroxide (95:5) was added and the solution was mixed. 750 μL of ethyl acetate was then added and mixed by aspirating and centrifuged at approximately 2500×g for 5 min. 400 μL of the organic layer was collected and evaporated under nitrogen at 40° C. The dried sample was reconstituted in 200 μL of ammonia acetate 10 mM:methanol:ammonia hydroxide (70:30:0.35) and centrifuged at 2000×g for 5 min. at room temperature. The extracted sample was then subjected to liquid chromatography using a Waters, Acquity, UPLC with a Gemini 3 μm NX-C18, 5×2 mm column. An injection volume of 8 μL was analyzed using Mobil phase A consisting of ammonium acetate 10 mM:ammonium hydroxide (100:0.5) and Mobile phase B consisting of methanol. The purified sample was then analyzed by mass spectrometry (LC-MS/MS). […] The effective calibration range was 0.2 to 200 ng/ml.

potassium = settings: mean ± SEM
Text: as §1
(§2) The diet consisted of 70-80 mEq/day of sodium and 80-90 mEq/day of potassium. Blood samples were obtained daily at the time points indicated in the accompanying Tables for measurements of aldosterone, 11β-deoxycorticosterone (DOC), and potassium (K^+). All of the blood samples were obtained while the subjects were seated in a resting state.

plasma aldosterone = settings: for Plasma levels of Aldosterone: mean ± SEM
Text: as §1, §2
Statistical evaluations of the hormonal responses was performed using the two-tailed, paired Student's t-test to evaluate within treatment group data, and data from between treatment groups utilized the two-tailed t-test equal variance model.

AUC0-t ([1]; 1 mg single oral dose, Day 1): 45.8 ± 4.16 ng·h/mL | Cmax ([1]; 1 mg single oral dose, Day 1): 4.68 ± 0.38 ng/mL | T1/2 ([1]; 1 mg single oral dose, Day 1): 8.19 ± 0.43 h | Tmax ([1]; 1 mg single oral dose, Day 1): 2.00 ± 0.49 h | AUC0-t ([1]; 2 mg single oral dose, Day 1): 133 ± 27.41 ng·h/mL | Cmax ([1]; 2 mg single oral dose, Day 1): 12.0 ± 1.71 ng/mL | T1/2 ([1]; 2 mg single oral dose, Day 1): 11.3 ± 1.28 h | Tmax ([1]; 2 mg single oral dose, Day 1): 2.08 ± 0.36 h | AUC0-t ([1]; 4 mg once daily oral, Day 1): 139 ± 15.0 ng·h/mL | AUC0-∞ ([1]; 4 mg once daily oral, Day 1): 167 ± 22.0 ng·h/mL | Cmax ([1]; 4 mg once daily oral, Day 1): 14.0 ± 1.6 ng/mL | T1/2 ([1]; 4 mg once daily oral, Day 1): 8.47 h | Tmax ([1]; 4 mg once daily oral, Day 1): 2.08 ± 0.28 h | AUC0-t ([1]; 4 mg once daily oral, Day 8): 154 ± 20.5 ng·h/mL | AUC0-∞ ([1]; 4 mg once daily oral, Day 8): 154 ± 20.5 ng·h/mL | Cmax ([1]; 4 mg once daily oral, Day 8): 15.1 ± 1.1 ng/mL | T1/2 ([1]; 4 mg once daily oral, Day 8): 8.58 ± 1.1 h | Tmax ([1]; 4 mg once daily oral, Day 8): 1.92 ± 0.35 h | AUC0-tau ([1]; 4 mg, Day 1): 134 ± 29.2 ng·h/mL | AUC0-tau ([1]; 4 mg, Day 8): 148 ± 33.0 ng·h/mL | AUC0-t ([1]; 8 mg once daily oral, Day 1): 281 ± 24.2 ng·h/mL | AUC0-∞ ([1]; 8 mg once daily oral, Day 1): 335 ± 31.5 ng·h/mL | Cmax ([1]; 8 mg once daily oral, Day 1): 29.4 ± 2.5 ng/mL | T1/2 ([1]; 8 mg once daily oral, Day 1): 8.82 ± 0.4 h | Tmax ([1]; 8 mg once daily oral, Day 1): 1.81 ± 0.25 h | AUC0-t ([1]; 8 mg once daily oral, Day 8): 338 ± 28.5 ng·h/mL | AUC0-∞ ([1]; 8 mg once daily oral, Day 8): 338 ± 28.5 ng·h/mL | Cmax ([1]; 8 mg once daily oral, Day 8): 37.9 ± 3.9 ng/mL | T1/2 ([1]; 8 mg once daily oral, Day 8): 8.92 ± 0.5 h | Tmax ([1]; 8 mg once daily oral, Day 8): 1.56 ± 0.26 h | AUC0-tau ([1]; 8 mg, Day 1): 274 ± 24.9 ng·h/mL | AUC0-tau ([1]; 8 mg, Day 8): 331 ± 22.5 ng·h/mL | AUC0-t ([1]; 16 mg once daily oral, Day 1): 610 ± 34.7 ng·h/mL | AUC0-∞ ([1]; 16 mg once daily oral, Day 1): 740 ± 65.8 ng·h/mL | Cmax ([1]; 16 mg once daily oral, Day 1): 66.8 ± 6.1 ng/mL | T1/2 ([1]; 16 mg once daily oral, Day 1): 9.04 ± 0.8 h | Tmax ([1]; 16 mg once daily oral, Day 1): 1.88 ± 0.41 h | AUC0-t ([1]; 16 mg once daily oral, Day 8): 725 ± 51.4 ng·h/mL | AUC0-∞ ([1]; 16 mg once daily oral, Day 8): 725 ± 51.4 ng·h/mL | Cmax ([1]; 16 mg once daily oral, Day 8): 77.4 ± 6.9 ng/mL | T1/2 ([1]; 16 mg once daily oral, Day 8): 9.67 h | Tmax ([1]; 16 mg once daily oral, Day 8): 1.88 ± 0.40 h | AUC0-tau ([1]; 16 mg, Day 1): 603 ± 15.8 ng·h/mL | AUC0-tau ([1]; 16 mg, Day 8): 714 ± 19.1 ng·h/mL | absorption (Tmax) ([1]; all dose levels): absorbed rapidly at all dose levels | dose proportionality of Cmax and AUC0-∞ ([1]; all dose levels): dose-proportional
Structure (SMILES): N#Cc1ccc([C@H]2CCCc3cncn32)cc1.O=P(O)(O)O [DP13, (R)-(+)-5-(p-cyanophenyl)-5,6,7,8-tetrahydroimidazolium[1,5-a]pyridine dihydrogen phosphate]
Blood levels of potassium (potassium; 4 mg once daily, Day 1 (08:00 h), pretreatment): 4.4 ± 0.6 mmol/L | Blood levels of potassium (potassium; 4 mg once daily, Day 8, 08:00 h pre-dose): 4.8 ± 0.8^a,b mmol/L | Blood levels of potassium (potassium; 8 mg once daily, Day 1 (08:00 h), pretreatment): 4.3 ± 0.07 mmol/L | Blood levels of potassium (potassium; 8 mg once daily, Day 8, 08:00 h pre-dose): 4.6 ± 0.09^a,b mmol/L | Blood levels of potassium (potassium; 16 mg once daily, Day 1 (08:00 h), pretreatment): 4.4 ± 0.11 mmol/L | Blood levels of potassium (potassium; 16 mg once daily, Day 8, 08:00 h pre-dose): 4.7 ± 0.06^a,b mmol/L | suppression of plasma aldosterone compared to placebo (plasma aldosterone; 1 mg dose): 52% | suppression of plasma aldosterone compared to pretreatment values (plasma aldosterone; 1 mg dose, 18 and 24 hours after the last once daily dose on day 8 (so in the source)): 18% | suppression of plasma aldosterone compared to placebo (plasma aldosterone; 2 mg dose): 61% | suppression of plasma aldosterone compared to pretreatment values (plasma aldosterone; 2 mg dose, 18 and 24 hours after the last once daily dose on day 8 (so in the source)): 39% | Plasma levels of Aldosterone (plasma aldosterone; 4 mg once daily oral, 8 days, Day 1, 08:00 h, pretreatment): 306.2 ± 59.0 pmol/L | Plasma levels of Aldosterone (plasma aldosterone; 4 mg once daily, Day 2 (08:00 h)): 198.4 ± 43.4^b,d pmol/L | Plasma levels of Aldosterone (plasma aldosterone; 4 mg once daily, Day 8, 14:00 h): 166.2 ± 17.9^c,d pmol/L | Plasma levels of Aldosterone (plasma aldosterone; 4 mg once daily, Day 9, 08:00 h (24 h after last dose)): 334.9 ± 53.3 pmol/L | plasma aldosterone versus placebo control (plasma aldosterone; 4 mg/day oral, day 9, twenty-four hours after the last of 8 daily doses): failed to lower the plasma aldosterone level below the level of the placebo control | Plasma levels of Aldosterone (plasma aldosterone; 8 mg once daily oral, 8 days, Day 1, 08:00 h, pretreatment): 271.4 ± 31.5 pmol/L | Plasma levels of Aldosterone (plasma aldosterone; 8 mg once daily, Day 2 (08:00 h)): 118.0 ± 12.4^b,d pmol/L | Plasma levels of Aldosterone (plasma aldosterone; 8 mg once daily, Day 8, 14:00 h): 91.9 ± 7.5^c,d pmol/L | Plasma levels of Aldosterone (plasma aldosterone; 8 mg once daily, Day 9, 08:00 h (24 h after last dose)): 186.4 ± 22.1^d pmol/L | suppression of plasma aldosterone compared to pretreatment values (plasma aldosterone; 8 mg once daily, twenty-four hours after the last dose on day 8): 32% | Plasma levels of Aldosterone (plasma aldosterone; 16 mg once daily oral, 8 days, Day 1, 08:00 h, pretreatment): 314.6 ± 48.6 pmol/L | Plasma levels of Aldosterone (plasma aldosterone; 16 mg once daily, Day 2 (08:00 h)): 108.4 ± 13.4^b,d pmol/L | Plasma levels of Aldosterone (plasma aldosterone; 16 mg once daily, Day 8, 14:00 h): 100.9 ± 8.3^c,d pmol/L | Plasma levels of Aldosterone (plasma aldosterone; 16 mg once daily, Day 9, 08:00 h (24 h after last dose)): 156.0 ± 26.8^a,d pmol/L | suppression of plasma aldosterone compared to pretreatment values (plasma aldosterone; 16 mg once daily, twenty-four hours after the last dose on day 8): 50% | Plasma levels of Aldosterone (plasma aldosterone; single dose 1 mg, Day 1, 08:00 h, pretreatment): 171 ± 8.1 pmol/L | Plasma levels of Aldosterone (plasma aldosterone; single dose 1 mg, Day 1, 14:00 h): 118 ± 8.4^e pmol/L | Plasma levels of Aldosterone (plasma aldosterone; single dose 1 mg, Day 1, 20:00 h): 104 ± 4.9^e pmol/L | Plasma levels of Aldosterone (plasma aldosterone; single dose 1 mg, Day 2, 08:00 h): 141 ± 14^e pmol/L | Plasma levels of Aldosterone (plasma aldosterone; single dose 2 mg, Day 1, 08:00 h, pretreatment): 203 ± 13.8 pmol/L | Plasma levels of Aldosterone (plasma aldosterone; single dose 2 mg, Day 1, 14:00 h): 129 ± 8.8^e pmol/L | Plasma levels of Aldosterone (plasma aldosterone; single dose 2 mg, Day 1, 20:00 h): 114 ± 9.2^e pmol/L | Plasma levels of Aldosterone (plasma aldosterone; single dose 2 mg, Day 2, 08:00 h): 124 ± 9^e pmol/L
